Results published in ChEMBL document CHEMBL1201862, “PubChem BioAssay data set” (2004).
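Test compounds were applied to cells in 96-well plates for 48 hours at 5 doses. Here, GI50 denotes the concentration required for 50% inhibition of growth.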 Active and inactive are the calls of the source. Cut-off read from the data, not from the text of the source: active = GI50 up to about 1.1 µM and inactive = higher.

Experiments:
Experiment in all cases: DTP human tumour cell line panel, 48 h
[1] = test system: SR
[2] = test system: RXF 393
[3] = test system: ACHN
[4] = test system: SF-268
[5] = test system: SW-620
[6] = test system: MCF7
[7] = test system: MDA-N
[8] = test system: T47D
[9] = test system: SK-MEL-2
[10] = test system: CCRF-CEM
[11] = test system: OVCAR-4
[12] = test system: LOX IMVI
[13] = test system: OVCAR-3
[14] = test system: NCI/ADR-RES
[15] = test system: SF-295
[16] = test system: PC-3
[17] = test system: UO-31
[18] = test system: LXFL 529
[19] = test system: HCT-116
[20] = test system: KM12

Measured: GI50

COc1ccc(C2C(Cl)C(=O)N2NC(=O)c2ccc(N)cc2)cc1OC (stereo not given)
inactive: [1] 2.2 µM | [2] 15.3 µM | [3] 13.7 µM | [4] 10.9 µM | [5] 3.27 µM | [6] 9.84 µM | [7] 9.46 µM | [8] 11.1 µM | [9] 11.9 µM | [10] 1.71 µM | [11] 5.69 µM | [12] 1.5 µM | [13] 5.85 µM | [14] 1.97 µM | [15] 7.16 µM | [16] 12.9 µM | [17] 12.1 µM | [18] 1.95 µM | [19] 1.5 µM | [20] 1.52 µM

Cc1[nH]c2ccccc2c1C1Cc2ccccc2N1C(=O)/C=C/C(=O)O (stereo not given)
inactive: [1] > 100 µM | [2] > 100 µM | [3] > 100 µM | [4] > 100 µM | [5] > 100 µM | [9] > 100 µM | [10] > 100 µM | [11] > 100 µM | [12] > 100 µM | [13] > 100 µM | [15] > 100 µM | [17] > 100 µM | [18] > 100 µM | [19] > 100 µM | [20] > 100 µM

OCC(O)C(O)C(O)C1SC(c2ccccc2)=NN1c1ccccc1 (stereo not given)
inactive: [1] > 81.3 µM | [2] 20.4 µM | [3] 64.7 µM | [4] 24.6 µM | [5] > 100 µM | [6] > 100 µM | [7] > 82.4 µM | [8] > 46.8 µM | [9] 41.7 µM | [10] > 81.5 µM | [11] > 88.3 µM | [12] 50.7 µM | [13] > 68.9 µM | [14] > 70.1 µM | [15] 35.1 µM | [16] > 57.5 µM | [17] 66.2 µM | [18] > 95.5 µM | [19] 69.5 µM | [20] > 100 µM

O=C(O)C(=O)/C=C\c1ccc(Cl)cc1
inactive: [1] 51.6 µM | [2] > 100 µM | [3] > 100 µM | [4] > 100 µM | [5] 10.6 µM | [9] > 100 µM | [10] > 100 µM | [11] > 100 µM | [12] > 100 µM | [13] > 100 µM | [15] > 100 µM | [17] > 100 µM | [18] > 100 µM | [19] > 100 µM | [20] > 100 µM
